What was measured:
[1] = molecular target: T1, Bile acid receptor (Homo sapiens, UniProt Q96RI1); assay: Agonist activity at FXR LBD (unknown origin) using fluorescein-SRC2-2 as substrate incubated for 3 hrs by TR-FRET assay
T1 sequence (Q96RI1 whole entry): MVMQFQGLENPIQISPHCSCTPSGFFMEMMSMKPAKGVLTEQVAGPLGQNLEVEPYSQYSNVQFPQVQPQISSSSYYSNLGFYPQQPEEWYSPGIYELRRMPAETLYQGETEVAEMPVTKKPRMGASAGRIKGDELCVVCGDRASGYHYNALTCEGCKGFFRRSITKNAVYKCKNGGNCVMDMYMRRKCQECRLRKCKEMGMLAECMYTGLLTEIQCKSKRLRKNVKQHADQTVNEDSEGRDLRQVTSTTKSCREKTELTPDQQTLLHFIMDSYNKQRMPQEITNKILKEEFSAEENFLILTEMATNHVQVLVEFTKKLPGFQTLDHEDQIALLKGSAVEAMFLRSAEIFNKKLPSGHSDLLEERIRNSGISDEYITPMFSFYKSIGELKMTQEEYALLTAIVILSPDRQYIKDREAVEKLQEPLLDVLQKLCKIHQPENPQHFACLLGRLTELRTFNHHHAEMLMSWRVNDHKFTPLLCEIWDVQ

[2] = Sub-acute toxicity in ICR mouse assessed as change in serum urea level at 500 mg/kg, po qd treated for 10 days; format: organism-based; conditions: in vivo, 240 h, time 10 day
[3] = Sub-acute toxicity in ICR mouse assessed as anomaly in spleen at 500 mg/kg, po qd treated for 10 days; format: organism-based; conditions: in vivo, 240 h, time 10 day
[4] = Sub-acute toxicity in ICR mouse assessed as change in serum AST level at 500 mg/kg, po qd treated for 10 days; format: organism-based; conditions: in vivo, 240 h, time 10 day
[5] = Sub-acute toxicity in ICR mouse assessed as change in serum TG level at 500 mg/kg, po qd treated for 10 days; format: organism-based; conditions: in vivo, 240 h, time 10 day
[6] = Sub-acute toxicity in ICR mouse assessed as anomaly in heart at 500 mg/kg, po qd treated for 10 days; format: organism-based; conditions: in vivo, 240 h, time 10 day
[7] = Sub-acute toxicity in ICR mouse assessed as abnormal behaviour at 500 mg/kg, po qd treated for 10 days; format: organism-based; conditions: in vivo, 240 h, time 10 day
[8] = Sub-acute toxicity in ICR mouse assessed as anomaly in kidney at 500 mg/kg, po qd treated for 10 days; format: organism-based; conditions: in vivo, 240 h, time 10 day
[9] = Sub-acute toxicity in ICR mouse assessed as animal death at 500 mg/kg, po qd treated for 10 days; format: organism-based; conditions: in vivo, 240 h, time 10 day
[10] = Sub-acute toxicity in ICR mouse assessed as change in serum TBIL level at 500 mg/kg, po qd treated for 10 days; format: organism-based; conditions: in vivo, 240 h, time 10 day
[11] = Sub-acute toxicity in ICR mouse assessed as change in serum ALP level at 500 mg/kg, po qd treated for 10 days; format: organism-based; conditions: in vivo, 240 h, time 10 day
[12] = Sub-acute toxicity in ICR mouse assessed as anomaly in liver at 500 mg/kg, po qd treated for 10 days; format: organism-based; conditions: in vivo, 240 h, time 10 day
[13] = Sub-acute toxicity in ICR mouse assessed as change in serum ALT level at 500 mg/kg, po qd treated for 10 days; format: organism-based; conditions: in vivo, 240 h, time 10 day
[14] = Sub-acute toxicity in ICR mouse assessed as change in serum TC level at 500 mg/kg, po qd treated for 10 days; format: organism-based; conditions: in vivo, 240 h, time 10 day
[15] = Sub-acute toxicity in ICR mouse assessed as change in serum DBIL level at 500 mg/kg, po qd treated for 10 days; format: organism-based; conditions: in vivo, 240 h, time 10 day
[16] = Sub-acute toxicity in ICR mouse assessed as anomaly in lung at 500 mg/kg, po qd treated for 10 days; format: organism-based; conditions: in vivo, 240 h, time 10 day
[17] = Sub-acute toxicity in ICR mouse assessed as change in serum creatinine level at 500 mg/kg, po qd treated for 10 days; format: organism-based; conditions: in vivo, 240 h, time 10 day

Compound | EC50 [1] | further results
O=C(O)c1cccc(-c2ccc(N(CC3CC3)S(=O)(=O)c3c(Cl)cccc3Cl)cc2)c1 | > 10 µM | 
CC(C)CN(c1ccc(-c2ccc(OCC(=O)O)c(F)c2)cc1)S(=O)(=O)C1CCCCC1 | > 10 µM | 
CC(C)CN(c1ccc(COc2ccc3c(CC(=O)O)coc3c2)cc1)S(=O)(=O)c1c(Cl)cccc1Cl | > 10 µM | 
CC(C)CN(c1ccc(-c2ccc(OC(C)C(=O)O)c(F)c2)cc1)S(=O)(=O)c1c(Cl)cccc1Cl (stereo not given) | 8.7 µM | 
CC(C)CN(c1ccc(COc2cccc(CC(=O)O)c2)cc1)S(=O)(=O)c1c(Cl)cccc1Cl | > 10 µM | 
Cc1ccc(S(=O)(=O)N(CC(C)C)c2ccc(-c3ccc(C(=O)O)cc3)cc2)cc1 | > 10 µM | 
Cc1ccc(S(=O)(=O)N(CC(C)C)c2ccc(-c3ccc(CCC(=O)O)cc3)cc2)cc1 | > 10 µM | 
CC(C)CN(c1ccc(-c2ccc(OCC(=O)O)c(F)c2)cc1)S(=O)(=O)c1c(Cl)cccc1Cl |  | Activity [2]: Non-Toxic; Activity [3]: Non-Toxic; Activity [4]: Non-Toxic; Activity [5]: Non-Toxic; Activity [6]: Non-Toxic; Activity [7]: Non-Toxic; Activity [8]: Non-Toxic; Activity [9]: Non-Toxic; Activity [10]: Non-Toxic; Activity [11]: Non-Toxic; Activity [12]: Non-Toxic; Activity [13]: Non-Toxic; Activity [14]: Non-Toxic; Activity [15]: Non-Toxic; Activity [16]: Non-Toxic; Activity [17]: Non-Toxic
Cc1ccc(S(=O)(=O)N(CC(C)C)c2ccc(-c3ccc(OCC(=O)O)c(F)c3)cc2)cc1 | > 10 µM | 
CC#CC(CC(=O)O)c1ccc(OCc2ccc(N(CC(C)C)S(=O)(=O)c3c(Cl)cccc3Cl)cc2)cc1 (stereo not given) | > 10 µM | 

Further lines, with some results ahead:

EC50 [1] | Compound | further results
> 10 µM | CC(C)CN(c1ccc(-c2cccc(C(=O)O)c2)cc1)S(=O)(=O)c1c(Cl)cccc1Cl | 
> 10 µM | CC(C)CN(c1ccc(-c2ccc(OC(C)(C)C(=O)O)c(F)c2)cc1)S(=O)(=O)c1c(Cl)cccc1Cl | 
> 10 µM | CC(C)CN(c1ccc(-c2cccc(CC(=O)O)c2)cc1)S(=O)(=O)c1c(Cl)cccc1Cl | 
3.5 µM | CC(C)CN(c1ccc(-c2ccc(C(=O)O)cc2)cc1)S(=O)(=O)c1c(Cl)cccc1Cl | 
6.5 µM | CC(C)CN(c1ccc(-c2ccc(CCC(=O)O)cc2)cc1)S(=O)(=O)c1c(Cl)cccc1Cl | 
> 10 µM | CC(C)CN(c1ccc(-c2ccc(C3(C(=O)O)CC3)cc2)cc1)S(=O)(=O)c1c(Cl)cccc1Cl | 
> 10 µM | CC(C)CN(c1ccc(-c2ccc(C(=O)NC3CC3)cc2)cc1)S(=O)(=O)c1c(Cl)cccc1Cl | 
> 10 µM | CC(C)CN(c1ccc(-c2ccc(C(N)=O)cc2)cc1)S(=O)(=O)c1c(Cl)cccc1Cl | 
> 10 µM | CC(C)CN(c1ccc(-c2cccc(C3(C(=O)O)CC3)c2)cc1)S(=O)(=O)c1c(Cl)cccc1Cl | 
0.89 µM | CC(C)CN(c1ccc(-c2ccc(OCC(=O)O)cc2)cc1)S(=O)(=O)c1c(Cl)cccc1Cl | 

From ChEMBL document CHEMBL5625171, “Design, synthesis, and biological studies of novel sulfonamide derivatives as farnesoid X receptor agonists” (Eur J Med Chem, 2023)
